Test results: the NIST ThermoML archive (doi:10.1021/je800664z)

Assay: refractive index (Na D-line) (dimensionless); xn = mol fraction of the nth substance listed
Conditions: 101 kPa, Liquid, Standard Abbe refractometry

C1COCO1 [1,3-dioxolane] + CC(C)CC(C)(C)C
refractive index
Conditions | 288.15 K | 298.15 K | 308.15 K
x1 = 0.0501 | 1.39395 | 1.38898 | 1.38381
x1 = 0.1 | 1.39385 | 1.38885 | 1.38367
x1 = 0.15 | 1.39377 | 1.38876 | 1.38361
x1 = 0.2 | 1.39374 | 1.38876 | 1.3836
x1 = 0.25 | 1.39378 | 1.38883 | 1.3837
x1 = 0.3 | 1.39389 | 1.38897 | 1.38387
x1 = 0.35 | 1.39411 | 1.3892 | 1.3841
x1 = 0.4 | 1.3944 | 1.38948 | 1.3844
x1 = 0.45 | 1.39473 | 1.38982 | 1.38476
x1 = 0.5 | 1.39512 | 1.39022 | 1.38517
x1 = 0.55 | 1.39558 | 1.39068 | 1.38563
x1 = 0.6 | 1.3961 | 1.3912 | 1.38614
x1 = 0.65 | 1.39668 | 1.39178 | 1.38672
x1 = 0.7 | 1.39734 | 1.39243 | 1.38739
x1 = 0.75 | 1.39807 | 1.39318 | 1.38814
x1 = 0.8 | 1.39883 | 1.39399 | 1.38895
x1 = 0.85 | 1.39966 | 1.39487 | 1.38987
x1 = 0.9 | 1.40055 | 1.39581 | 1.3909
x1 = 0.95 | 1.40152 | 1.39683 | 1.39199
x1 = 1 | 1.40252 | 1.39795 | 1.39322

C1COCO1 [1,3-dioxolane] + CC(C)O
refractive index
Conditions | 288.15 K | 298.15 K | 308.15 K
x1 = 0.05 | 1.38037 | 1.37601 | 1.37126
x1 = 0.1 | 1.38139 | 1.37686 | 1.37207
x1 = 0.15 | 1.38242 | 1.37776 | 1.37295
x1 = 0.2 | 1.38343 | 1.37869 | 1.37388
x1 = 0.25 | 1.38447 | 1.37966 | 1.37483
x1 = 0.3001 | 1.3855 | 1.38065 | 1.37579
x1 = 0.35 | 1.38655 | 1.38168 | 1.3768
x1 = 0.4 | 1.38763 | 1.38274 | 1.37785
x1 = 0.45 | 1.38875 | 1.38384 | 1.37894
x1 = 0.5 | 1.3899 | 1.38496 | 1.38006
x1 = 0.55 | 1.39107 | 1.38611 | 1.38121
x1 = 0.6 | 1.39227 | 1.38729 | 1.38238
x1 = 0.65 | 1.39348 | 1.3885 | 1.38359
x1 = 0.7001 | 1.39473 | 1.38975 | 1.38483
x1 = 0.75 | 1.396 | 1.39103 | 1.38608
x1 = 0.8 | 1.39731 | 1.39234 | 1.38737
x1 = 0.85 | 1.39862 | 1.39368 | 1.38872
x1 = 0.9 | 1.39993 | 1.39509 | 1.39013
x1 = 0.95 | 1.40123 | 1.39653 | 1.39165
x1 = 1 | 1.40252 | 1.39795 | 1.39322
